The target in one data set is T1, human EGF-R (Homo sapiens, UniProt P00533).
T1 construct: expressed in transfected cells; host or cells: F/L-HERc cells (murine IL-3-dependent FDC-P1 line transduced with LXSN retroviral vector carrying human EGF-R cDNA; packaging line GP+E86)
T1 sequence (P00533 25-1210): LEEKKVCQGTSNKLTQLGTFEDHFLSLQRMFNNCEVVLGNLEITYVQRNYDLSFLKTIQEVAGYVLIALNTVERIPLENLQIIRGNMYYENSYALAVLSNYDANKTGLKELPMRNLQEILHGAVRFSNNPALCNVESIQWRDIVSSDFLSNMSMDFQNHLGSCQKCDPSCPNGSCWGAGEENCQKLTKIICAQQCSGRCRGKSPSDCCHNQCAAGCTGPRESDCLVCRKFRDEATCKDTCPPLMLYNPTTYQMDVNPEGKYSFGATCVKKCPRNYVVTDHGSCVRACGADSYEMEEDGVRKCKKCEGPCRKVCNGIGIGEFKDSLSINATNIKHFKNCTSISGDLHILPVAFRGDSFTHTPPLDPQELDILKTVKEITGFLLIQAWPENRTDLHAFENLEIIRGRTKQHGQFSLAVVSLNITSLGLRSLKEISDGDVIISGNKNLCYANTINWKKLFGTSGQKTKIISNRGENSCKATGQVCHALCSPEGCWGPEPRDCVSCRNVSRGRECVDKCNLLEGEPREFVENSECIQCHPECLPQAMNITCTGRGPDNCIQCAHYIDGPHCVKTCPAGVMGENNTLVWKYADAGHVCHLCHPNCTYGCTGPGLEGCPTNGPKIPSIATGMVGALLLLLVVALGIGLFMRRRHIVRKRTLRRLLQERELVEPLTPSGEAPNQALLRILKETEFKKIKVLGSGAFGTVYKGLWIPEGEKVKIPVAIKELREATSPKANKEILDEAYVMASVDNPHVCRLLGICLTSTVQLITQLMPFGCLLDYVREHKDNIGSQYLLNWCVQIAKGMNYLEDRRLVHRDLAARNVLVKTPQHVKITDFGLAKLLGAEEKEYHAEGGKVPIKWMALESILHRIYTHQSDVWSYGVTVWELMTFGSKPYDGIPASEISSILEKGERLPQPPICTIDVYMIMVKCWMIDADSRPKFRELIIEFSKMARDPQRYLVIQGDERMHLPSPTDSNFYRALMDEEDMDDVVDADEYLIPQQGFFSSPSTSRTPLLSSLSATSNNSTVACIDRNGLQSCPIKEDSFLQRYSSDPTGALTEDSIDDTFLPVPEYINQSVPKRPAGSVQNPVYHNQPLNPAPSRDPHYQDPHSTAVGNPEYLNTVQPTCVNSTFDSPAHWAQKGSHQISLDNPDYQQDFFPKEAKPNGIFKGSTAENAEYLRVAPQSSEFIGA
The experiment in a line: Inhibition of EGF-dependent proliferation of F/L-HERc cells (Cell Titer 96 assay). It is filed as cell-based. Particulars: F/L-HERc cells (murine IL-3-dependent line expressing human EGF-R), stimulated with EGF 20 ng/ml, 48 hours at 37° C. The text has this: A cell line of murine origin dependent on interleukin-3-(IL-3) which was genetically modified to express functional human EGF-R was used here. The proliferation of these cells known as F/L-HERc can therefore be stimulated either by murine IL-3 or by EGF (cf. T. von Rüden et al. in EMBO J. 7, 2749-2756 (1988) and J. H. Pierce et al. in Science 239, 628-631 (1988)).
The starting material used for the F/L-HERc cells was the cell line FDC-P1, the production of which has been described by T. M. Dexter et al. in J. Exp. Med. 152, 1036-1047 (1980). Alternatively, however, other growth-factor-dependent cells may also be used (cf., for example, J. H. Pierce et al. in Science 239, 628-631 (1988), H. Shibuya et al. in Cell 70, 57-67 (1992) and W. S. Alexander et al. in EMBO J. 10, 3683-3691 (1991)). For expressing the human EGF-R cDNA (cf. A. Ullrich et al. in Nature 309, 418-425 (1984)) recombinant retroviruses were used as described by T. von Rüden et al., EMBO J. 7, 2749-2756 (1988), except that the retroviral vector LXSN (cf. A. D. Miller et al. in BioTechniques 7, 980-990 (1989)) was used for the expression of the EGF-R cDNA and the line GP+E86 (cf. D. Markowitz et al. in J. Virol. 62, 1120-1124 (1988)) was used as the packaging cell.
The test was performed as follows:
F/L-HERc cells were cultivated in RPMI/1640 medium (Bio Whittaker), supplemented with 10% fetal calf serum (FCS, Boehringer Mannheim), 2 mM glutamine (Bio Whittaker), standard antibiotics and 20 ng/ml of human EGF (Promega), at 37° C. and 5% CO2. In order to investigate the inhibitory activity of the compounds according to the invention, 1.5×10^4 cells per well were cultivated in triplicate in 96-well dishes in the above medium (200 μl), the cell proliferation being stimulated with either EGF (20 ng/ml) or murine IL-3. […]
In order to determine the inhibitory activity of the compounds according to the invention the relative cell number was measured in O.D. units using the Cell Titer 96™ Aqueous Non-Radioactive Cell Proliferation Assay (Promega). […]
On to `C[C@@H]1CN(CC=CC(=O)Nc2cc3c(Nc4ccc(F)c(Cl)c4)ncnc3cc2OCC2CC2)CC(=O)O1` [2(1), 4-[(3-chloro-4-fluorophenyl)amino]-6-{[4-((R)-6-methyl-2-oxomorpholin-4-yl)-1-oxo-2-buten-1-yl]amino}-7-cyclopropylmethoxyquinazoline], for which the midpoint of inhibition, the IC50, lay at 9 nM.

Take `CN(CC=CC(=O)Nc1cc2c(Nc3ccc(F)c(Cl)c3)ncnc2cc1OCC1CC1)CC1OCCO1` [1(2), 4-[(3-chloro-4-fluorophenyl)amino]-6-[(4-{N-[(1,3-dioxolan-2-yl)methyl]-N-methylamino}-1-oxo-2-buten-1-yl)amino]-7-cyclopropylmethoxyquinazoline]: the IC50 (as a rule, the point on the concentration scale where inhibition reaches its midpoint) is 0.02 nM.

`C[C@H]1CN(CC=CC(=O)Nc2cc3c(Nc4ccc(F)c(Cl)c4)ncnc3cc2OCC2CC2)CC(=O)O1` [Example 2, 4-[(3-chloro-4-fluorophenyl)amino]-6-{[4-((S)-6-methyl-2-oxomorpholin-4-yl)-1-oxo-2-buten-1-yl]amino}-7-cyclopropylmethoxyguinazoline]: half-maximal inhibition (IC50) required 15 nM.

Test system in a further data set: not given
Assay: not given
Details: not given
Turning to `C[C@H]1C(=O)OCCN1CC=CC(=O)Nc1cc2c(Nc3ccc(F)c(Cl)c3)ncnc2cc1OCC1CC1` [Example 2(2), 4-[(3-chloro-4-fluorophenyl)amino]-6-{[4-((S)-3-methyl-2-oxomorpholin-4-yl)-1-oxo-2-buten-1-yl]amino}-7-cyclopropylmethoxyquinazoline], the melting point (usually the temperature, or range, at which the solid turns liquid) was determined as 182 °C.

On to `C[C@H]1CN(CC=CC(=O)Nc2cc3c(Nc4ccc(F)c(Cl)c4)ncnc3cc2OCC2CCOCC2)CC(=O)O1` [Example 2(21), 4-[(3-chloro-4-fluorophenyl)amino]-6-{[4-((S)-6-methyl-2-oxomorpholin-4-yl)-1-oxo-2-buten-1-yl]amino}-7-[(tetrahydropyran-4-yl)methoxy]quinazoline], for which the melting point is 196 to 199 °C.

Take `C[C@@H]1CN(CC=CC(=O)Nc2cc3c(Nc4ccc(F)c(Cl)c4)ncnc3cc2OCC2CCOCC2)CC(=O)O1` [Example 2(19), 4-[(3-chloro-4-fluorophenyl)amino]-6-{[4-((R)-6-methyl-2-oxomorpholin-4-yl)-1-oxo-2-buten-1-yl]amino}-7-[(tetrahydropyran-4-yl)methoxy]quinazoline]: the melting point was 196 °C.

Take `C[C@@H]1CN(CC=CC(=O)Nc2cc3c(Nc4ccc(F)c(Cl)c4)ncnc3cc2O[C@@H]2CCOC2)CC(=O)O1` [Example 2(7), 4-[(3-chloro-4-fluorophenyl)amino]-6-{[4-((R)-6-methyl-2-oxomorpholin-4-yl)-1-oxo-2-buten-1-yl]amino}-7-[(R)-(tetrahydrofuran-3-yl)oxy]quinazoline]: the melting point was found to be 230 °C.

`CN(CC=CC(=O)Nc1cc2c(Nc3ccc(F)c(Cl)c3)ncnc2cc1OCC1CC1)CC1OCCO1` [1(2), 4-[(3-chloro-4-fluorophenyl)amino]-6-[(4-{N-[(1,3-dioxolan-2-yl)methyl]-N-methylamino}-1-oxo-2-buten-1-yl)amino]-7-cyclopropylmethoxyquinazoline] showed a melting point of 121 °C.

For the origin of these results see patent US6653305B2, “Bicyclic heterocycles, pharmaceutical compositions containing them, their use, and processes for preparing them” (Boehringer Ingelheim Pharma KG, priority 2000, dated 2003).
